According to patent US20100168112A1, “2-Substituted and 4-substituted aryl nitrone compounds” (RENOVIS, INC., priority 2004, published 2010):

Experiments:
STZ-diabetic rats = assay: Diabetic neuropathy, mechanical hyperalgesia (paw-withdrawal reflex test, Basile Analgesymeter); assay type: in vivo, Sprague Dawley (SD) rats; details: p.o., bid; for PWT (paw-withdrawal threshold), mechanical hyperalgesia: STZ-diabetic rats, mean ± SEM
Text: In this example, the ability of Compound 62 to produce beneficial effects in protecting against and/or reversing the pathology of neuropathy in a streptozotocin (STZ)-induced rat model of diabetes. To evaluate if chronic treatment with Compound 62 protects the diabetic animals from developing neuropathy, they were examined for mechanical hyperalgesia responses.
Adult male Sprague Dawley (SD) rats weighing 250-300 gm (Charles River Laboratories, San Diego, Calif.) were used. The animal room was lighted artificially at a 12-hr light-dark cycle (from 7:00 A.M. to 7:00 P.M.) with water and food supply ad libitum. Animals were allocated randomly into groups. Forty-nine (49) days prior to the behavioral tests, rats received a bolus injection of STZ (75 mg/kg, i.v.). STZ was dissolved in 0.1 M sodium citrate buffer, pH 4.5 solution, at the concentration of 75 mg/ml. To ensure the development of hyperglycemia, their non-fasted levels of glucose in whole blood, obtained via tail veins, were evaluated, using a glocometer (Accucheck®, Roche Diagnostics, Palo Alto, Calif.), once a week. Animals failing to show hyperglycemic conditions (i.e., whole blood glucose>120 mg/dL) were removed from the study. Diabetic rats were treated orally with Compound 62 (5 mg/kg or 25 mg/kg, both bid) or vehicle (1 ml/kg, bid), starting the date of STZ-injection. Compound 62 was dissolved in vehicle, which is composed of 96% of 0.5% CMC and 4% of 10% Tween 80. As a control, a group of naive rats received oral Compound 62 (25 mg/kg, bid) or vehicle (1 ml/kg, bid) treatment. Each group had >12 rats. Time-effect curves of the STZ diabetic rats (Compound 62 vs. Vehicle) were compared with each other, while curves of the naive rats (Compound 62 vs. Vehicle) were compared with each other. The comparisons were conducted, using two-way (group×time) repeated measures analysis of variance (ANOVA) followed by Fishers post-hoc test. A probability value of p<0.05 was considered as statistically significant.
Before the experiments, these rats were trained in the paw-withdrawal reflex test, using a Basile Analgesymeter (Ugo Basile, Biological Research Apparatus, Comerio VA, Italy), which applies a linearly increasing mechanical force to the dorsum of the rats hind paw. The training of mechanical nociceptive flexion reflex response was performed on lightly restrained rats, at 5-min intervals for 1 hr each day for a period of 5 days. On the day of the experiment, paw-withdrawal thresholds (PWT) (i.e., mechanical force that causes the animal to withdraw its paw from the stimulus) were measured at 5-min intervals for 1 hr. The mean was obtained from the average of the last 6 PWT readings. […]

1K1C rats = assay: Kidney ischemia-reperfusion injury, one-kidney one-clip (1K1C) model, fractional excretion of sodium; assay type: in vivo
Description: Rats were individually housed in a modified cage that was equipped with a raised mesh bottom to separate the fecal product from urine. Before the test, all animals were withheld from food and water overnight. In the morning of the test, normal saline (i.e., 0.9% sodium chloride) was given via oral gavage at […] (Lipschitz, W. L. Hadidian, Z. & Kerpcar, A.: Bioassay of diuretics., J. Pharmacol. Exp. Ther., 79: 97-110, 1943). Samples of blood and urine were collected (standard procedures) at time points (1 and/or 5 hrs after fluid intake) from animals, centrifuged, and kept at 4 degrees until analysis for factors that reflect renal functions. Sodium and creatinine levels were determined by Quality Clinical Labs, Inc. (Mountain View, Calif.). Sodium concentrations were determined by ion selective electrode (standard procedures). Creatinine levels were determined by the alkaline picrated (Jaffe) reaction as described (Liobat-Estelles, M., Sevillano-Cabeja, A. & Campines-Falco, P.: Kinetic chemometric studies of the determination of creatinine using the Jaffe reaction. Part I: kinetics of the reaction; analytical conclusion. Analyst, 11: 597-602, 1989). Fractional excretion of sodium (FENa+), a parameter for ion-handling by the kidney, was calculated, using the following equation: =UNa×Pcr/PNa×Ucr, where UNa is the concentration of sodium in urine; Pcr is the plasma concentration of creatinine; PNa is the […]; and Ucr is the concentration of creatinine in the urine.
After the data for the calculation of basal levels of FENa+ was obtained (Table 16), rats were anesthetized with pentobarbital (65 mg/kg, i.p.). The abdominal region was shaved with a safety razor and sterilized with povidone iodine solution. A midline incision was made and the right kidney was exposed. The right renal pedicle and right urether were both ligated twice with 4-0 sutures and cut between the ligations. The right kidney was then removed. 7 days later, these rats, after another overnight food-water deprivation, were randomly assigned into 3 groups and orally given either Compound 62 (50 mg/kg, at the volume of 1 ml/kg,p.o.) or its vehicle (i.e., 96% of 0.5% CMC and 4 of 20% Tween 80, at the volume of 1 ml/kg, p.o.) 1 hr before kidney ischemia was produced. Positive controls were performed using quercetin (30 mg/kg, i.p.) given 2 hrs before ischemia (Kahraman, A., Erkasap, N., Serteser, M. & Koken, T.: Protective effect of quercetin on renal ischemia/reperfusion injury in rats. J. Nephrol., 16: 219-224, 2003). Animals were then anesthetized and had their left kidneys exposed after opening of their abdominal cavities. A non-traumatic vascular clamp was applied to the left renal pedicle (the ischemia phase), which was released 45 min later (the reperfusion phase). Lipschitz test was then conducted to measure ion-handling capabilities. Normal saline was orally administered at […] as soon as the vascular clamp was released. 60- and 300-min after reperfusion, plasma and urine samples were obtained.

[1] = 1K1C rats, Compound 62 50 mg/kg p.o. 1 hr before ischemia, quercetin 30 mg/kg i.p. 2 hrs before, 45 min ischemia, mean ± SEM

## CC(C)(C)/[N+]([O-])=C/c1ccc(S(C)(=O)=O)cc1 [Compound 62, N-tert-Butyl-C-[4-(methanesulfonyl)phenyl]nitrone]
STZ-diabetic rats; 5 mg/kg, x49 d
  significantly reversed mechanical hyperalgesia compared with vehicle-treated STZ-diabetic rats (in words): not
STZ-diabetic rats; 25 mg/kg, x49 d
  reversal of mechanical hyperalgesia compared with vehicle-treated STZ-diabetic rats (in words): significantly reversed mechanical hyperalgesia
STZ-diabetic rats; 5 mg/kg, x49 d (low dose, 62L)
  PWT (paw-withdrawal threshold), mechanical hyperalgesia: 70.29 ± 3.18 GRAMS
STZ-diabetic rats; 25 mg/kg, x49 d (high dose, 62H)
  PWT (paw-withdrawal threshold), mechanical hyperalgesia: 86.86 ± 4.79 GRAMS
1K1C rats; 1K1C rats, 50 mg/kg p.o., acutely dosed
  effect on FENa+ compared with the vehicle treatment group (in words): significantly enhanced FENa+ 5-hr after reperfusion
1K1C rats; [1]
  1-hr post-ischemic FENa+ (%): 0.52 ± 0.29%
  5-hr post-ischemic FENa+ (%): 2.52 ± 0.5%
1K1C rats; rats before 1K1C modeling, group baseline, mean ± SEM
  FENa+ (%) pre-surgery (basal) levels: 1.71 ± 0.36%
